target: human integrin αvβ6 (Homo sapiens (Human), UniProt P06756+P18564); assay: Proximity-based integrin receptor binding assay (ALPHASCREEN) for inhibitor potency; details: inhibition of binding of TGF-b1 LAP to human integrin αvβ6; values given in ranges
Method: To gauge the potency of inhibitors of binding to human integrin αvβ6, inhibitor compounds and integrin were incubated together with TGF-b1 LAP and biotinylated anti-LAP antibody plus acceptor and donor beads, following the manufacture's recommendations. The donor beads were coated with streptavidin. […] All incubations occurred at room temperatures in 50 mM Tris-HCl, pH 7.5, 0.1% BSA supplemented with 1 mM each CaCl2 and MgCl2.
The order of reagent addition was as follows:
1. Alpha-v-beta-6 integrin, test inhibitor compound, LAP, biotinylated anti-LAP antibody and acceptor beads were all added together.
2. After 2 hours, donor beads were added. After another 30 minute incubation, samples were then read.
Integrin binding was evaluated by exciting donor beads at 680 nm, and measuring the fluorescent signal produced, between 520-620 nm, using a Biotek Instruments (Winooski, Vt., USA) SynergyNeo2 multimode plate reader. […] Data analysis for IC50 determinations was carried out by nonlinear four parameter logistic regression analysis using Dotmatics ELN Software (Core Informatics Inc., Branford, Conn.).

human integrin αvβ6, sequence (P06756 31-992): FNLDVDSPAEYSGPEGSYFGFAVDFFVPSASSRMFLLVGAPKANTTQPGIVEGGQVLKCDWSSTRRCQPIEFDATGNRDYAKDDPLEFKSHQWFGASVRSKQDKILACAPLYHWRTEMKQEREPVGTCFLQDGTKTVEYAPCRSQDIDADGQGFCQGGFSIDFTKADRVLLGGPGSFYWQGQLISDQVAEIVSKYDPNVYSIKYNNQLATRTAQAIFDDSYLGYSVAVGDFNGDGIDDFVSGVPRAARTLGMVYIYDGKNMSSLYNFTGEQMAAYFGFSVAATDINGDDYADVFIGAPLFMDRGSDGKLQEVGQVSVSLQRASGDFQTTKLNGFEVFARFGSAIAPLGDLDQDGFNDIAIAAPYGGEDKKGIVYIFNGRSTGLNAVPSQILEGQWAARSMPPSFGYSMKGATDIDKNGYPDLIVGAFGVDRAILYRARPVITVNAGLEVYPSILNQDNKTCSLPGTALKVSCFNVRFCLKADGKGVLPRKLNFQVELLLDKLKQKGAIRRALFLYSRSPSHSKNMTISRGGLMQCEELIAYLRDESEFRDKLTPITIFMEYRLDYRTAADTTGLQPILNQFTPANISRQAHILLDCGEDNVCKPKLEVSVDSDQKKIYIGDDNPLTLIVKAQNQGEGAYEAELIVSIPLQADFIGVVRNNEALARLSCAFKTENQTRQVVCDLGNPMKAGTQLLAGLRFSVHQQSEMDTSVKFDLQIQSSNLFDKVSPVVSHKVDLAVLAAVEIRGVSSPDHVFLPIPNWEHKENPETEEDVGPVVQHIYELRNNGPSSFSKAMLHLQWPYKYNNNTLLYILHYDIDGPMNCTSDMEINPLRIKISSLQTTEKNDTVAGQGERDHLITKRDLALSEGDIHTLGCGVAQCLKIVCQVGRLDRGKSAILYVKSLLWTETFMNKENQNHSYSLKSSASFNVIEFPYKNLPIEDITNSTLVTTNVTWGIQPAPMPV
human integrin αvβ6, sequence (P18564 22-707): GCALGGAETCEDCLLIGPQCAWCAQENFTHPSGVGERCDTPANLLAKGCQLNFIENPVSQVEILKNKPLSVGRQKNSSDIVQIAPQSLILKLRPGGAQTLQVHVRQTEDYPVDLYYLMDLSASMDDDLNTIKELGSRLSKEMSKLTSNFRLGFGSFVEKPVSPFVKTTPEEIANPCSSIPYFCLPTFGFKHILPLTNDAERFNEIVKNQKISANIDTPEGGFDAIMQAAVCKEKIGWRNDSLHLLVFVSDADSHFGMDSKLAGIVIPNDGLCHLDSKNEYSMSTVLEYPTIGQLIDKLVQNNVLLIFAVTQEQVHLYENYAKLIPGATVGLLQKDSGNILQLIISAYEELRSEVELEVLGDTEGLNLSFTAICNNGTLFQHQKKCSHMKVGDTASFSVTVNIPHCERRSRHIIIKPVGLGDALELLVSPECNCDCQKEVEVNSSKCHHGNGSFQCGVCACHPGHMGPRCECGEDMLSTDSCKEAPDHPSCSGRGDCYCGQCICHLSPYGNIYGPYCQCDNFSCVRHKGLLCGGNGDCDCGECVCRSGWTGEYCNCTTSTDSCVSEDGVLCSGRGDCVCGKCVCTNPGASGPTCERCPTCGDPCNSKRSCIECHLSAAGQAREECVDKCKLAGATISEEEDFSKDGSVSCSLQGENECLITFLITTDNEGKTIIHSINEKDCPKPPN

IC50 [nM]	Compound
< 50	O=C(N[C@@H](CCO[C@H]1C[C@H](CCc2ccc3c(n2)NCCC3)C1)C(=O)O)c1cccnc1 [Compound 36, N-nicotinoyl-O-(trans-3-(2-(5,6,7,8-tetrahydro-1,8-naphthyridin-2-yl)ethyl)cyclobutyl)homoserine]
250 to 1000	O=C(N[C@@H](CCO[C@H]1C[C@@H](CCc2ccc3c(n2)NCCC3)C1)C(=O)O)c1cccc(-c2cncs2)c1 [Compound 69, O-(cis-3-(2-(5,6,7,8-tetrahydro-1,8-naphthyridin-2-yl)ethyl)cyclobutyl)-N-(3-(thiazol-5-yl)benzoyl)homoserine]
< 50	C[C@H](OC(=O)N[C@@H](CCO[C@H]1C[C@H](CCc2ccc3c(n2)NCCC3)C1)C(=O)O)c1ccccc1 [Compound 141, N—(((S)-1-phenylethoxy)carbonyl)-O-(trans-3-(2-(5,6,7,8-tetrahydro-1,8-naphthyridin-2-yl)ethyl)cyclobutyl)homoserine]
< 50	O=C(N[C@@H](CCO[C@H]1C[C@H](CCc2ccc3c(n2)NCCC3)C1)C(=O)O)c1c(F)cccc1Cl [Compound 31, N-(2-chloro-6-fluorobenzoyl)-O-(trans-3-(2-(5,6,7,8-tetrahydro-1,8-naphthyridin-2-yl)ethyl)cyclobutyl)homoserine]
< 50	O=C(N[C@@H](CCO[C@H]1C[C@H](CCc2ccc3c(n2)NCCC3)C1)C(=O)O)c1cccc(Cl)c1F [Compound 27, N-(3-chloro-2-fluorobenzoyl)-O-(trans-3-(2-(5,6,7,8-tetrahydro-1,8-naphthyridin-2-yl)ethyl)cyclobutyl)homoserine]
250 to 1000	COCC(C)(C)C(=O)NC(CCO[C@H]1C[C@H](CCc2ccc3c(n2)NCCC3)C1)C(=O)O (stereo partly drawn) [Compound 90, N-(3-methoxy-2,2-dimethylpropanoyl)-O-(trans-3-(2-(5,6,7,8-tetrahydro-1,8-naphthyridin-2-yl)ethyl)cyclobutyl)homoserine]
< 50	CC(C)(C(=O)NC(CCO[C@H]1C[C@H](CCc2ccc3c(n2)NCCC3)C1)C(=O)O)c1ccc(F)cc1 (stereo partly drawn) [Compound 102, N-(2-(4-fluorophenyl)-2-methylpropanoyl)-O-(trans-3-(2-(5,6,7,8-tetrahydro-1,8-naphthyridin-2-yl)ethyl)cyclobutyl)homoserine]
50 to 250	CCC(CC)CC(=O)N[C@@H](CCO[C@H]1C[C@@H](CCc2ccc3c(n2)NCCC3)C1)C(=O)O [Compound 67, N-(3-ethylpentanoyl)-O-(cis-3-(2-(5,6,7,8-tetrahydro-1,8-naphthyridin-2-yl)ethyl)cyclobutyl)homoserine]
50 to 250	CC(C)(C)COC(=O)N[C@@H](CCO[C@H]1C[C@H](CCc2ccc3c(n2)NCCC3)C1)C(=O)O [Compound 112, N-((neopentyloxy)carbonyl)-O-(trans-3-(2-(5,6,7,8-tetrahydro-1,8-naphthyridin-2-yl)ethyl)cyclobutyl)homoserine]
< 50	CC(C)(C)c1ccc(C2(C(=O)N[C@@H](CCO[C@H]3C[C@H](CCc4ccc5c(n4)NCCC5)C3)C(=O)O)CCC2)cc1 [Compound 190, N-(1-(4-(tert-butyl)phenyl)cyclobutane-1-carbonyl)-O-(trans-3-(2-(5,6,7,8-tetrahydro-1,8-naphthyridin-2-yl)ethyl)cyclobutyl)homoserine]
< 50	O=C(N[C@@H](CCO[C@H]1C[C@H](CCc2ccc3c(n2)NCCC3)C1)C(=O)O)c1ccc(F)c(F)c1 [Compound 29, N-(3,4-difluorobenzoyl)-O-(trans-3-(2-(5,6,7,8-tetrahydro-1,8-naphthyridin-2-yl)ethyl)cyclobutyl)homoserine]
< 50	CC(C)(OC(=O)N[C@@H](CCO[C@H]1C[C@H](CCc2ccc3c(n2)NCCC3)C1)C(=O)O)C(F)(F)F [Compound 115, O-(trans-3-(2-(5,6,7,8-tetrahydro-1,8-naphthyridin-2-yl)ethyl)cyclobutyl)-N-(((1,1,1-trifluoro-2-methylpropan-2-yl)oxy)carbonyl)homoserine]
50 to 250	O=C(O)C(CCO[C@H]1C[C@H](CCc2ccc3c(n2)NCCC3)C1)NC(=O)[C@H](O)c1ccccc1 (stereo partly drawn) [Compound 80, N—((R)-2-hydroxy-2-phenylacetyl)-O-(trans-3-(2-(5,6,7,8-tetrahydro-1,8-naphthyridin-2-yl)ethyl)cyclobutyl)homoserine]
250 to 1000	O=C(O)C(CCO[C@H]1C[C@H](CCc2ccc3c(n2)NCCC3)C1)NC(=O)C1(c2ccccc2)CC1 (stereo partly drawn) [Compound 82, N-(1-phenylcyclopropane-1-carbonyl)-O-(trans-3-(2-(5,6,7,8-tetrahydro-1,8-naphthyridin-2-yl)ethyl)cyclobutyl)homoserine]
> 1000	Cn1ncc2c(C(=O)NC(CCOCCCCc3ccc4c(n3)NCCC4)C(=O)O)cccc21 (stereo not shown) [Compound 4, N-(1-methyl-1H-indazole-4-carbonyl)-O-(4-(5,6,7,8-tetrahydro-1,8-naphthyridin-2-yl)butyl)homoserine]
< 50	O=C(N[C@@H](CCO[C@H]1C[C@H](CCc2ccc3c(n2)NCCC3)C1)C(=O)O)OC1CCCCC1 [Compound 131, N-((cyclohexyloxy)carbonyl)-O-(trans-3-(2-(5,6,7,8-tetrahydro-1,8-naphthyridin-2-yl)ethyl)cyclobutyl)homoserine]
50 to 250	O=C(NC(CCOC1CC(CCc2ccc3c(n2)NCCC3)C1)C(=O)O)c1cc(F)cc(C(F)(F)F)c1 (stereo not shown) [Compound 10, N-(3-fluoro-5-(trifluoromethyl)benzoyl)-O-(3-(2-(5,6,7,8-tetrahydro-1,8-naphthyridin-2-yl)ethyl)cyclobutyl)homoserine]
< 50	O=C(N[C@@H](CCO[C@H]1C[C@H](CCc2ccc3c(n2)NCCC3)C1)C(=O)O)c1c(F)cccc1F [Compound 32, N-(2,6-difluorobenzoyl)-O-(trans-3-(2-(5,6,7,8-tetrahydro-1,8-naphthyridin-2-yl)ethyl)cyclobutyl)homoserine]
250 to 1000	CC(=O)N1CC[C@H](OC(=O)N[C@@H](CCO[C@H]2C[C@H](CCc3ccc4c(n3)NCCC4)C2)C(=O)O)C1 [Compound 137, N—((((S)-1-acetylpyrrolidin-3-yl)oxy)carbonyl)-O-(trans-3-(2-(5,6,7,8-tetrahydro-1,8-naphthyridin-2-yl)ethyl)cyclobutyl)homoserine]

Compound	IC50 [nM]
CC(C)(C)OC(=O)N1CC(C(=O)N[C@@H](CCO[C@H]2C[C@H](CCc3ccc4c(n3)NCCC4)C2)C(=O)O)C1 [Compound 173, N-(1-(tert-butoxycarbonyl)azetidine-3-carbonyl)-O-(trans-3-(2-(5,6,7,8-tetrahydro-1,8-naphthyridin-2-yl)ethyl)cyclobutyl)homoserine]	< 50
CC(C)(C)OC(=O)N1CC(C)(C(=O)N[C@@H](CCO[C@H]2C[C@H](CCc3ccc4c(n3)NCCC4)C2)C(=O)O)C1 [Compound 172, N-(1-(tert-butoxycarbonyl)-3-methylazetidine-3-carbonyl)-O-(trans-3-(2-(5,6,7,8-tetrahydro-1,8-naphthyridin-2-yl)ethyl)cyclobutyl)homoserine]	< 50
CC(C)(C)OC(=O)NC(CCO[C@H]1C[C@H](CCc2ccc3c(n2)NCCC3)C1)C(=O)O (stereo partly drawn) [Compound 101, N-(tert-butoxycarbonyl)-O-(trans-3-(2-(5,6,7,8-tetrahydro-1,8-naphthyridin-2-yl)ethyl)cyclobutyl)homoserine]	< 50

From patent publication US11180494B2, “Substituted amino acids as integrin inhibitors” (Pliant Therapeutics, Inc., priority 2018, dated 2021)
